Drawing on US7307061B2, “β-peptoids with antimicrobial activity” (E.I. du Pont de Nemours and Company, priority 2004, dated 2007), this text covers MIC for 17 compounds.

Molecules are shown by their SMILES. Converted amounts (≈) assume the structure as drawn. A value given as a limit tells only on which side of the number the result lay.

What is called MIC is the smallest concentration in the dilution series that meets the test's criterion for growth inhibition. A higher MIC goes with a need for much substance.

This assay concerns E. coli ATCC 25922. It counts as cell-based. As to conditions: ATCC 25922, 24 h. On the procedure:
The minimal inhibitory concentration (MIC) for the peptoids was determined in sterile microtiter plates in a final volume of 200 μl using Trypticase Soy Broth (TSB; Difco Laboratories, Detroit, Mich.) as the growth medium. Serial two-fold dilutions of the peptoid stock were made in the plate wells such that concentrations ranged from 512 to 2 μg/ml in a volume of 100 μL. Each well was then inoculated with 100 μl of a dilute suspension of bacteria in TSB yielding a final concentration of 1×10^4 bacteria/ml. The final peptoid concentrations ranged from 256 μg/ml to […]. The assay plates were incubated at 37° C. for 24 hours inside a Bioscreen C microtitre plate reader (Thermo Labsystems; Vantaa, Finland). Optical Density (OD) of the medium at 600 nm was recorded every 20 minutes to monitor cell growth. The lowest concentration of peptoid preventing bacterial growth during the 24 hr period was defined as the MIC.
Table 1. Antibacterial activity of peptoids against E. coli ATCC 25922. The general structure for each of the Compounds 20 to 41 is represented by Formula V: […]

Compound `CC(=O)N(CCC(=O)N(CCCN(C)C)CCC(=O)N(CCC(=O)N(CCC(=O)N(CCCN(C)C)CCC(=O)N(CCC(=O)N(CCC(=O)N(CCCN(C)C)CCC(=O)N(CCC(=O)NC(CCCCN)C(N)=O)CC(C)C)Cc1ccccc1)CC(C)C)Cc1ccccc1)CC(C)C)Cc1ccccc1` (centres unmarked) [Compound 20, Ac(Bz-DMAP-Ibu)3-Lys-NH2] showed a minimum inhibitory concentration (MIC) of 128 µg/mL (≈ 84.1 µM).
In turn, `CC(=O)N(CCC(=O)N(CCCN(C)C)CCC(=O)N(CCC(=O)N(CCC(=O)N(CCCN(C)C)CCC(=O)N(CCC(=O)N(CCC(=O)N(CCCN(C)C)CCC(=O)N(CCC(=O)N(CCC(=O)N(CCCN(C)C)CCC(=O)N(CCC(=O)N(CCC(=O)N(CCCN(C)C)CCC(=O)N(CCC(=O)NC(CCCCN)C(N)=O)CC(C)C)Cc1ccccc1)CC(C)C)Cc1ccccc1)CC(C)C)Cc1ccccc1)CC(C)C)Cc1ccccc1)CC(C)C)Cc1ccccc1` (centres unmarked) [Compound 21, Ac(Bz-DMAP-Ibu)5-Lys-NH2] had an MIC of 128 µg/mL (≈ 53.1 µM).
For `CC(=O)N(CCC(=O)N(CCCN(C)C)CCC(=O)N(CCC(=O)N(CCC(=O)N(CCCN(C)C)CCC(=O)N(CCC(=O)N(CCC(=O)N(CCCN(C)C)CCC(=O)N(CCC(=O)N(CCC(=O)N(CCCN(C)C)CCC(=O)N(CCC(=O)N(CCC(=O)N(CCCN(C)C)CCC(=O)N(CCC(=O)N(CCC(=O)N(CCCN(C)C)CCC(=O)N(CCC(=O)NC(CCCCN)C(N)=O)CC(C)C)Cc1ccccc1)CC(C)C)Cc1ccccc1)CC(C)C)Cc1ccccc1)CC(C)C)Cc1ccccc1)CC(C)C)Cc1ccccc1)CC(C)C)Cc1ccccc1` (centres unmarked) [Compound 22, Ac(Bz-DMAP-Ibu)6-Lys-NH2], the minimum inhibitory concentration (MIC) came to 128 µg/mL (≈ 44.8 µM).
On to `CC(=O)N(CCC(=O)N(CCC(=O)N(CCCN(C)C)CCC(=O)N(CCC(=O)N(CCC(=O)N(CCCN(C)C)CCC(=O)N(CCC(=O)N(CCC(=O)N(CCCN(C)C)CCC(=O)NC(CCCCN)C(N)=O)CC(C)C)Cc1ccccc1)CC(C)C)Cc1ccccc1)CC(C)C)Cc1ccccc1` (centres unmarked) [Compound 23, Ac(Bz-Ibu-DMAP)3-Lys-NH2], for which the MIC is 512 µg/mL (≈ 337 µM).
To `CC(=O)N(CCC(=O)N(CCC(=O)N(CCCN(C)C)CCC(=O)N(CCC(=O)N(CCC(=O)N(CCCN(C)C)CCC(=O)N(CCC(=O)N(CCC(=O)N(CCCN(C)C)CCC(=O)N(CCC(=O)N(CCC(=O)N(CCCN(C)C)CCC(=O)NC(CCCCN)C(N)=O)CC(C)C)Cc1ccccc1)CC(C)C)Cc1ccccc1)CC(C)C)Cc1ccccc1)CC(C)C)Cc1ccccc1` (centres unmarked) [Compound 24, Ac(Bz-Ibu-DMAP)4-Lys-NH2] belongs 128 µg/mL (≈ 65.1 µM); to `CC(=O)N(CCC(=O)N(CCC(=O)N(CCCN(C)C)CCC(=O)N(CCC(=O)N(CCC(=O)N(CCCN(C)C)CCC(=O)N(CCC(=O)N(CCC(=O)N(CCCN(C)C)CCC(=O)N(CCC(=O)N(CCC(=O)N(CCCN(C)C)CCC(=O)N(CCC(=O)N(CCC(=O)N(CCCN(C)C)CCC(=O)NC(CCCCN)C(N)=O)CC(C)C)Cc1ccccc1)CC(C)C)Cc1ccccc1)CC(C)C)Cc1ccccc1)CC(C)C)Cc1ccccc1)CC(C)C)Cc1ccccc1` (centres unmarked) [Compound 25, Ac(Bz-Ibu-DMAP)5-Lys-NH2], 128 µg/mL (≈ 53.1 µM); to `CC(=O)N(CCC(=O)N(CCN)CCC(=O)N(CCC(=O)N(CCN)CCC(=O)N(CCC(=O)N(CCN)CCC(=O)N(CCC(=O)N(CCN)CCC(=O)N(CCC(=O)N(CCN)CCC(=O)N(CCC(=O)N(CCN)CCC(=O)NC(CCCCN)C(N)=O)CC(C)C)CC(C)C)CC(C)C)CC(C)C)CC(C)C)CC(C)C` (centres unmarked) [Compound 26, Ac(Ibu-Aminoethyl)6-Lys-NH2], 128 µg/mL (≈ 78.3 µM).
In the case of `CC(=O)N(CCC(=O)N(CCCN(C)C)CCC(=O)N(CCC(=O)N(CCCN(C)C)CCC(=O)N(CCC(=O)N(CCCN(C)C)CCC(=O)N(CCC(=O)N(CCCN(C)C)CCC(=O)N(CCC(=O)N(CCCN(C)C)CCC(=O)NC(CCCCN)C(N)=O)CC(C)C)CC(C)C)CC(C)C)CC(C)C)CC(C)C` (centres unmarked) [Compound 27, Ac(Ibu-DMAP)5-Lys-NH2], the minimal inhibitory concentration (MIC) is above 512 µg/mL.
With `CC(=O)N(CCC(=O)N(CCCN(C)C)CCC(=O)N(CCC(=O)N(CCCN(C)C)CCC(=O)N(CCC(=O)N(CCCN(C)C)CCC(=O)N(CCC(=O)N(CCCN(C)C)CCC(=O)N(CCC(=O)N(CCCN(C)C)CCC(=O)N(CCC(=O)N(CCCN(C)C)CCC(=O)N(CCC(=O)N(CCCN(C)C)CCC(=O)N(CCC(=O)N(CCCN(C)C)CCC(=O)NC(CCCCN)C(N)=O)CC(C)C)CC(C)C)CC(C)C)CC(C)C)CC(C)C)CC(C)C)CC(C)C)CC(C)C` (centres unmarked) [Compound 29, Ac(Ibu-DMAP)8-Lys-NH2], the minimum inhibitory concentration (MIC) was above 512 µg/mL.
Compound `CC(=O)N(CCC(=O)N(CCN)CCC(=O)N(CCC(=O)N(CCN)CCC(=O)N(CCC(=O)N(CCN)CCC(=O)N(CCC(=O)N(CCN)CCC(=O)N(CCC(=O)N(CCN)CCC(=O)NC(CCCCN)C(N)=O)CC(C)C)CC(C)C)CC(C)C)CC(C)C)CC(C)C` (centres unmarked) [Compound 30, Ac(Ibu-Aminoethyl)5-Lys-NH2] gave an MIC above 256 µg/mL.
`CC(=O)N(CCC(=O)N(CCN)CCC(=O)N(CCC(=O)N(CCN)CCC(=O)N(CCC(=O)N(CCN)CCC(=O)N(CCC(=O)N(CCN)CCC(=O)N(CCC(=O)N(CCN)CCC(=O)N(CCC(=O)N(CCN)CCC(=O)N(CCC(=O)N(CCN)CCC(=O)N(CCC(=O)N(CCN)CCC(=O)NC(CCCCN)C(N)=O)CC(C)C)CC(C)C)CC(C)C)CC(C)C)CC(C)C)CC(C)C)CC(C)C)CC(C)C` (centres unmarked) [Compound 32, Ac(Ibu-Aminoethyl)8-Lys-NH2] yielded a minimal inhibitory concentration (MIC) of 256 µg/mL (≈ 121 µM).
Turning to `CC(=O)N(CCC(=O)N(CCC(=O)N(CCN)CCC(=O)N(CCC(=O)N(CCC(=O)N(CCN)CCC(=O)N(CCC(=O)N(CCC(=O)N(CCN)CCC(=O)NC(CCCCN)C(N)=O)CC(C)C)CC(C)C)CC(C)C)CC(C)C)CC(C)C)CC(C)C` (stereo not drawn) [Compound 33, Ac(Ibu-Ibu-Aminoethyl)3-Lys-NH2], the MIC was above 512 µg/mL.
For `CC(=O)N(CCC(=O)N(CCC(=O)N(CCN)CCC(=O)N(CCC(=O)N(CCC(=O)N(CCN)CCC(=O)N(CCC(=O)N(CCC(=O)N(CCN)CCC(=O)N(CCC(=O)N(CCC(=O)N(CCN)CCC(=O)NC(CCCCN)C(N)=O)CC(C)C)CC(C)C)CC(C)C)CC(C)C)CC(C)C)CC(C)C)CC(C)C)CC(C)C` (stereo not drawn) [Compound 34, Ac(Ibu-Ibu-Aminoethyl)4-Lys-NH2], the MIC is 256 µg/mL (≈ 154 µM).
Turning to `CC(=O)N(CCC(=O)N(CCC(=O)N(CCN)CCC(=O)N(CCC(=O)N(CCC(=O)N(CCN)CCC(=O)N(CCC(=O)N(CCC(=O)N(CCN)CCC(=O)N(CCC(=O)N(CCC(=O)N(CCN)CCC(=O)N(CCC(=O)N(CCC(=O)N(CCN)CCC(=O)NC(CCCCN)C(N)=O)CC(C)C)CC(C)C)CC(C)C)CC(C)C)CC(C)C)CC(C)C)CC(C)C)CC(C)C)CC(C)C)CC(C)C` (stereo not drawn) [Compound 36, Ac(Ibu-Ibu-Aminoethyl)5-Lys-NH2], the MIC came to 256 µg/mL (≈ 126 µM).
Compound `CC(=O)N(CCC(=O)N(CCC(=O)N(CCCCN)CCC(=O)N(CCC(=O)N(CCC(=O)N(CCCCN)CCC(=O)NC(CCCCN)C(N)=O)CC(C)C)CC(C)C)CC(C)C)CC(C)C` (stereo not drawn) [Compound 37, Ac(Ibu-Ibu-Aminobutyl)2-Lys-NH2] showed an MIC above 512 µg/mL.
`CC(=O)N(CCC(=O)N(CCC(=O)N(CCCCN)CCC(=O)N(CCC(=O)N(CCC(=O)N(CCCCN)CCC(=O)N(CCC(=O)N(CCC(=O)N(CCCCN)CCC(=O)NC(CCCCN)C(N)=O)CC(C)C)CC(C)C)CC(C)C)CC(C)C)CC(C)C)CC(C)C` (stereo not drawn) [Compound 38, Ac(Ibu-Ibu-Aminobutyl)3-Lys-NH2] had a minimum inhibitory concentration (MIC) above 512 µg/mL.
In turn, `CC(=O)N(CCC(=O)N(CCCCN)CCC(=O)N(CCC(=O)N(CCCCN)CCC(=O)N(CCC(=O)N(CCCCN)CCC(=O)NC(CCCCN)C(N)=O)CC(C)C)CC(C)C)CC(C)C` (centres unmarked) [Compound 41, Ac(Ibu-Aminobutyl)3-Lys-NH2] had an MIC of 512 µg/mL (≈ 514 µM).
